Results from PubChem BioAssay (NCI).
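Where inhibition never reached the appropriate level, the endpoint shown equals the highest concentration tested. Otherwise, values were interpolated linearly from a five-concentration, 48-hour dose response in 96-well plates. Here, GI50 denotes the concentration required for 50% inhibition of growth. TGI: concentration producing complete growth inhibition.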

Experiments:
Assay in all cases: DTP human tumour cell line panel, 48 h; in the data active means GI50 below about 0.43 µM; inactive means the rest
[1] = tested on: 786-0 renal
[2] = tested on: A498 renal
[3] = tested on: A549 NSCLC
[4] = tested on: ACHN renal
[5] = tested on: CAKI-1 renal
[6] = tested on: CCRF-CEM leukemia
[7] = tested on: COLO 205 colon
[8] = tested on: DU-145 prostate
[9] = tested on: HCC-2998 colon
[10] = tested on: HCT-15 colon
[11] = tested on: HL-60(TB) leukemia
[12] = tested on: HOP-62 NSCLC
[13] = tested on: HS 578T breast
[14] = tested on: HT29 colon
[15] = tested on: IGROV1 ovarian
[16] = tested on: K-562 leukemia
[17] = tested on: LOX IMVI melanoma
[18] = tested on: M14 melanoma
[19] = tested on: MALME-3M melanoma
[20] = tested on: MDA-MB-231 breast
[21] = tested on: MOLT-4 leukemia
[22] = tested on: NCI-H226 lung
[23] = tested on: NCI-H23 lung
[24] = tested on: NCI-H460 lung
[25] = tested on: NCI-H522 lung
[26] = tested on: NCI/ADR-RES ovarian
[27] = tested on: OVCAR-3 ovarian
[28] = tested on: OVCAR-4 ovarian
[29] = tested on: OVCAR-5 ovarian
[30] = tested on: OVCAR-8 ovarian
[31] = tested on: PC-3 prostate
[32] = tested on: RPMI-8226 leukemia
[33] = tested on: RXF 393 renal
[34] = tested on: SF-268 CNS
[35] = tested on: SF-539 CNS
[36] = tested on: SK-MEL-2 melanoma
[37] = tested on: SK-MEL-28 melanoma
[38] = tested on: SK-MEL-5 melanoma
[39] = tested on: SK-OV-3 ovarian
[40] = tested on: SN12C renal
[41] = tested on: SNB-19 CNS
[42] = tested on: SR leukemia
[43] = tested on: T-47D breast
[44] = tested on: TK-10 renal
[45] = tested on: U251 CNS
[46] = tested on: UACC-257 melanoma
[47] = tested on: UACC-62 melanoma
[48] = tested on: UO-31 renal
[49] = tested on: BT-549 breast
[50] = tested on: EKVX NSCLC
[51] = tested on: HCT-116 colon
[52] = tested on: HOP-92 NSCLC
[53] = tested on: KM12 colon
[54] = tested on: MCF7 breast
[55] = tested on: MDA-MB-435
[56] = tested on: SF-295 CNS
[57] = tested on: SNB-75 CNS
[58] = tested on: SW-620 colon

COc1cc(-c2cc(/C=C/C(=O)c3ccc4c(c3)OCO4)[nH]n2)cc(OC)c1OC
40.3 µM: TGI [46]
5.73 µM: TGI [35] | TGI [44]
78.7 µM: TGI [13]
20.8 µM: TGI [19]
93.5 µM: TGI [29]
5.96 µM: TGI [6]
2.35 µM: TGI [25]
3.78 µM: TGI [17]
14.5 µM: TGI [34]
2.87 µM: TGI [33]
9.81 µM: TGI [16]
2.94 µM: TGI [32]
5.45 µM: TGI [45]
3.71 µM: TGI [4]
9.15 µM: TGI [21]
62.1 µM: TGI [15]
5.1 µM: TGI [24]
9.56 µM: TGI [8]
3.85 µM: TGI [7]
> 100 µM: TGI [3] | TGI [5] | TGI [18] | TGI [20] | TGI [22] | TGI [23] | TGI [26] | TGI [28] | TGI [38] | TGI [40] | TGI [41] | TGI [42] | TGI [47]
7.34 µM: TGI [37]
5.82 µM: TGI [1]
6.36 µM: TGI [11]
inactive: GI50 [1] 2.33 µM | GI50 [2] 2.76 µM | GI50 [3] 4.32 µM | GI50 [4] 1.88 µM | GI50 [5] 5.51 µM | GI50 [6] 1.57 µM | GI50 [7] 1.87 µM | GI50 [8] 2.72 µM | GI50 [9] 1.95 µM | GI50 [10] 2.12 µM | GI50 [11] 2.17 µM | GI50 [12] 2.18 µM | GI50 [13] 3.71 µM | GI50 [14] 2.18 µM | GI50 [15] 5 µM | GI50 [16] 3.2 µM | GI50 [17] 1.82 µM | GI50 [18] 3.86 µM | GI50 [19] 4.42 µM | GI50 [20] 3.5 µM | GI50 [21] 2.98 µM | GI50 [22] 3.31 µM | GI50 [23] 20.2 µM | GI50 [24] 2.12 µM | GI50 [25] 1.03 µM | GI50 [26] 4.23 µM | GI50 [27] 3.38 µM | GI50 [28] 3.8 µM | GI50 [29] 3.37 µM | GI50 [30] 2.85 µM | GI50 [31] 2.81 µM | GI50 [32] 0.51 µM | GI50 [33] 1.48 µM | GI50 [34] 2.97 µM | GI50 [35] 2.07 µM | GI50 [36] 10.3 µM | GI50 [37] 2.48 µM | GI50 [38] 4.51 µM | GI50 [39] 5.76 µM | GI50 [40] 3.94 µM | GI50 [41] 4.3 µM | GI50 [42] 0.552 µM | GI50 [43] 2.51 µM | GI50 [44] 2.33 µM | GI50 [45] 2.01 µM | GI50 [46] 2.46 µM | GI50 [47] 4.67 µM | GI50 [48] 1.91 µM
11.1 µM: TGI [30]
4.55 µM: TGI [14]
15.4 µM: TGI [2]
17 µM: TGI [43]
5.44 µM: TGI [48]
3.54 µM: TGI [9]
28.9 µM: TGI [36]
12.3 µM: TGI [27]
13.7 µM: TGI [31]
26.1 µM: TGI [39]
5.17 µM: TGI [12]
7.19 µM: TGI [10]

COC1OCC(OS(=O)(=O)c2ccc(C)cc2)C(OC(=O)c2ccccc2)C1OC(=O)c1ccccc1 (stereo unspecified)
> 100 µM: TGI [1] | TGI [3] | TGI [4] | TGI [49] | TGI [5] | TGI [6] | TGI [7] | TGI [8] | TGI [50] | TGI [9] | TGI [51] | TGI [10] | TGI [11] | TGI [12] | TGI [52] | TGI [14] | TGI [15] | TGI [16] | TGI [53] | TGI [17] | TGI [19] | TGI [54] | TGI [20] | TGI [22] | TGI [23] | TGI [24] | TGI [26] | TGI [28] | TGI [29] | TGI [30] | TGI [31] | TGI [33] | TGI [34] | TGI [56] | TGI [35] | TGI [36] | TGI [37] | TGI [38] | TGI [39] | TGI [41] | TGI [42] | TGI [58] | TGI [43] | TGI [44] | TGI [45] | TGI [47] | TGI [48]
27.4 µM: TGI [13]
inactive: GI50 [1] 5.13 µM | GI50 [2] 4.53 µM | GI50 [3] 6.14 µM | GI50 [4] 8.83 µM | GI50 [49] > 100 µM | GI50 [5] 4.21 µM | GI50 [6] 4.74 µM | GI50 [7] 4.14 µM | GI50 [8] 19.7 µM | GI50 [50] 45.3 µM | GI50 [9] > 100 µM | GI50 [51] 3.45 µM | GI50 [10] 5.3 µM | GI50 [11] 4.08 µM | GI50 [12] 3.18 µM | GI50 [52] 2.48 µM | GI50 [13] 1.89 µM | GI50 [14] 3.96 µM | GI50 [15] 6.4 µM | GI50 [16] 3.16 µM | GI50 [53] 4.04 µM | GI50 [17] 5.05 µM | GI50 [19] 13.7 µM | GI50 [54] 3.01 µM | GI50 [20] 7.02 µM | GI50 [55] 0.662 µM | GI50 [22] > 100 µM | GI50 [23] > 100 µM | GI50 [24] 3.87 µM | GI50 [25] 1.56 µM | GI50 [26] 3.64 µM | GI50 [27] 2.95 µM | GI50 [28] 9.24 µM | GI50 [29] > 100 µM | GI50 [30] > 100 µM | GI50 [31] 9.01 µM | GI50 [33] 4.62 µM | GI50 [34] 9.75 µM | GI50 [56] 3.63 µM | GI50 [35] 5 µM | GI50 [36] 5.72 µM | GI50 [37] 4.62 µM | GI50 [38] 4.32 µM | GI50 [39] 21.7 µM | GI50 [41] 9.97 µM | GI50 [57] 1.78 µM | GI50 [42] 3.07 µM | GI50 [58] 3.08 µM | GI50 [43] 3.11 µM | GI50 [44] > 100 µM | GI50 [45] 4.72 µM | GI50 [47] 3.48 µM | GI50 [48] > 100 µM
90.9 µM: TGI [2]
61.7 µM: TGI [27]
4.65 µM: TGI [57]
3.94 µM: TGI [55]
7.09 µM: TGI [25]

N=C(N)c1ccc(-c2ccc(-c3cc(Cl)cc(Cl)c3)s2)cc1
2.8 µM: TGI [11]
active: GI50 [42] 0.284 µM
inactive: GI50 [11] 1.07 µM
> 100 µM: TGI [42]
